Earlier results in PMC4019989 (Clinical cancer research : an official journal of the …, 2009).

Test system: animals
Settings: cited from earlier work

For CC(C)C[C@H](NC(=O)[C@H](Cc1ccccc1)NC(=O)c1cnccn1)B(O)O [bortezomib], the “Toxicity of consecutive-day dosing” value is listed as “excessive toxicity”.
